Measured values from paper PMC11984388, “A brain-accessible peptide modulates stroke inflammatory response and neurotoxicity by targeting BDNF-receptor TrkB-T1 specific interactome” (Theranostics, 2025).
Residues, ends and D or L forms follow the SMILES beside them. *: point of attachment. Biotin = O=C1N[C@H]2[C@H](CS[C@H]2CCCCC(=O)*)N1

Tests used:
[1] = Peptide delivery to brain cortex of undamaged animals; type: in vivo; conditions: 3 nmol/g i.v. (retro-orbital), undamaged male mice, sacrificed 30 min after; Fluorescein Avidin D (Fig S5)
Method: Vehicle (saline), Bio-TMyc or Bio-TT1Ct (3 nmol/g) were retro-orbitally injected in mice one hour after induction of photothrombotic damage or, alternatively, undamaged animals. In the first case, animals were sacrificed 5 h after damage induction while, the second group was sacrificed 30 min after peptide administration. The details of brain fixation and cryoprotection for peptide visualization and/or immunohistochemistry are provided in the Supplementary material. […]
Finally, the sa mple s were mounted in Prolong Diamond. The images were acquired using an inverted Zeiss LSM 710 laser confocal microscope (Jena, Germany) with a 40x or 63x Plan-Apochromatic oil immersion objective. Images corre spond to single se ctions and were normalized for eac h colour se para tely and process ed for presenta tion with ImageJ (NIH Image) and Fiji.
Peptide visualization and immunohistochemis tr y in brain cortex
For peptide visua liz ation in undamaged or damaged brains, animals were deeply anes thetized and intra cardially perfus ed with cold PBS and 4% paraformalde hyde in PBS. Brains were post-fixed in the sa m e fixative at 4°C for 24 h and cryoprote cted in 30% suc ros e for 48 h at 4°C. […]

[2] = system: Bio-sTT1Ct-interacting proteins of primary cortical cultures; test: Pull-down with biotinylated peptide and label-free proteomics; type: binding, Rattus norvegicus; conditions: pull-down from neuronal-enriched cortical cultures; did not pass the selection criteria
Method: Cultures incubated with biotinylated peptides and treated as indicated were lysed at 4°C in NP-40 lysis buffer. Equal protein amounts were combined with streptavidin-agarose beads and incubated for 1.5 h for specifically-bounded protein isolation. Peptides and their interacting proteins were released by incubation at 50°C for 40 min in RIPA modified buffer. Peptide-interacting proteins were collected and subjected to LC-ESI-MS/MS (HR, medium gradient) protein identification using a mass spectrometer (Orbitrap Exploris 240) and Proteome Discoverer software for analysis (CNB Proteomics Facility, CSIC). Further procedure details are provided as Supplementary material.
Cultures were incubated with Bio-TMyc or Bio-sTT1Ct (30 min) before treatment with BDNF (100 ng/ml) or NMDA (100 µM) for 30 additional minutes, or left untreated (Figure 2A). […] Then, proteins interacting with Bio-TMyc and Bio-sTT1Ct were identified by a label free proteomic assay, obtaining a total of 4697 proteins for the three different biological conditions and four independent experiments analyzed. […] Therefore, we evaluated by a Principal Component Analysis (PCA) whether the interactome profiles obtained were different for both peptides (Figure 2B). […]
[…]

Structure (SMILES)	Crossing of the BBB and delivery to cortical cells [1]	Binding of RhoGDI (Arhgdia) to the peptide [2]
CC[C@H](C)[C@H](NC(=O)[C@H](CC(C)C)NC(=O)[C@H](CCCCN)NC(=O)[C@H](CCC(N)=O)NC(=O)[C@H](CCC(=O)O)NC(=O)[C@H](CCC(=O)O)NC(=O)[C@H](C)NC(=O)[C@H](CCCNC(=N)N)NC(=O)[C@H](CCCNC(=N)N)NC(=O)[C@H](CCCNC(=N)N)NC(=O)[C@H](CCC(N)=O)NC(=O)[C@H](CCCNC(=N)N)NC(=O)[C@H](CCCNC(=N)N)NC(=O)[C@H](CCCCN)NC(=O)[C@H](CCCCN)NC(=O)[C@H](CCCNC(=N)N)NC(=O)CNC(=O)[C@H](Cc1ccc(O)cc1)NC(=O)CCCC[C@@H]1SC[C@@H]2NC(=O)N[C@@H]21)C(=O)N[C@@H](CO)C(=O)N[C@@H](CCC(=O)O)C(=O)N[C@@H](CCC(=O)O)C(=O)N[C@@H](CC(=O)O)C(=O)N[C@@H](CC(C)C)C(=O)N[C@@H](CC(C)C)C(=O)N[C@@H](CCCNC(=N)N)C(N)=O [Bio-TMyc, reference compound] (Biotin-YGRKKRRQRRRAEEQKLISEEDLLR-NH2)	able to cross the BBB and efficiently reach most cortical cells in 30 min	–
CC[C@H](C)[C@H](NC(=O)[C@H](CCCCN)NC(=O)[C@H](Cc1c[nH]cn1)NC(=O)[C@H](Cc1ccccc1)NC(=O)[C@H](CC(C)C)NC(=O)[C@@H](NC(=O)[C@H](Cc1ccccc1)NC(=O)[C@H](CCCNC(=N)N)NC(=O)[C@H](CCCNC(=N)N)NC(=O)[C@H](CCCNC(=N)N)NC(=O)[C@H](CCC(N)=O)NC(=O)[C@H](CCCNC(=N)N)NC(=O)[C@H](CCCNC(=N)N)NC(=O)[C@H](CCCCN)NC(=O)[C@H](CCCCN)NC(=O)[C@H](CCCNC(=N)N)NC(=O)CNC(=O)[C@H](Cc1ccc(O)cc1)NC(=O)CCCC[C@@H]1SC[C@@H]2NC(=O)N[C@@H]21)C(C)C)C(=O)N1CCC[C@H]1C(=O)N[C@@H](CC(C)C)C(=O)N[C@@H](CC(=O)O)C(=O)NCC(N)=O [Bio-sTT1Ct] (Biotin-YGRKKRRQRRRFVLFHKIPLDG-NH2)	–	very low binding
